{"source": "paper PMC6333787", "about": "“Peptidyl-prolyl isomerase-B is involved in Mycobacterium tuberculosis biofilm formation and a generic target for drug repurposing-based intervention” (NPJ Biofilms and Microbiomes, 2019)", "key": {"[1]": {"test_system": "M.tb PpiB", "assay": "Surface plasmon resonance (SPR)", "assay_type": "binding, Mycobacterium tuberculosis", "details": "rPpiB immobilised on CM5 sensor chip, PBS, association 300 s, dissociation 150 s"}, "[2]": {"test_system": "M.smegmatis expressing M.tb PpiB (Ms_PpiB) and vector control (Ms_VC)", "assay_type": "cell-based, Mycobacterium smegmatis"}, "[3]": {"test_system": "M. smegmatis (Ms_VC and Ms_PpiB)", "assay_type": "cell-based, Mycobacterium smegmatis"}, "[4]": {"test_system": "M. smegmatis (Ms_VC and Ms_PpiB)", "assay_type": "cell-based, Mycobacterium smegmatis", "details": "for bacteriostatic effect at 100 µg/ml: up to 120 h; for Concentration up to which effect is bacteriostatic: 120 h as compared to 72 h; for bacteriostatic or bactericidal effect: M. smegmatis, summary statement"}, "[5]": {"test_system": "M. smegmatis (Ms_VC and Ms_PpiB)", "assay_type": "cell-based, Mycobacterium smegmatis", "remark": "listed apart in the source"}, "[6]": {"test_system": "M. smegmatis (Ms_VC and Ms_PpiB)", "assay_type": "cell-based, Mycobacterium smegmatis", "remark": "listed apart in the source"}, "[7]": {"test_system": "E. coli", "details": "cited from earlier work", "description": "Acarbose is widely used for the management of type 2 Diabetes mellitus as well. […] There are several bacteria that are invol ..."}, "[8]": {"details": "cited from earlier work", "description": "Our next step was to identify suitable drug(s) that could act as an inhibitor of PpiB protein. Developing new drugs is a long process taking about 10–15 years. Drug repurposing is gaining popularity as it allows bypassing of the cumbersome clinical trial of drugs for which the parameters of toxicity and effectiveness have already been tested and approved."}, "[9]": {"test_system": "M. smegmatis (Ms_VC and Ms_PpiB)", "details": "general statement, no reference given; cited from earlier work"}, "[10]": {"test_system": "M. smegmatis (Ms_VC and Ms_PpiB)", "details": "general statement, no reference given; cited from earlier work", "remark": "listed apart in the source"}, "[11]": {"test_system": "P.aeruginosa", "details": "cited from earlier work", "description": "The presence of extracellular M.tb within biofilm like structure inside lung lesions of M.tb infected guinea pigs undergoing antibiotic treatment points to the possibility of biofilm formation within the host tissues.[7] Peptidyl-prolyl isomerases (PPIase), popularly known as cyclophilins, are ubiquitously expressed protein foldases which aid in protein folding or refolding by ..."}, "[12]": {"test_system": "M.tuberculosis H37Rv", "assay_type": "cell-based, Mycobacterium tuberculosis"}, "[13]": {"test_system": "Candida albicans", "details": "cited from earlier work"}, "[14]": {"test_system": "C.parapsilosis", "details": "cited from earlier work"}, "[15]": {"test_system": "Prokaryotic cyclophilins", "details": "cited from earlier work"}}, "note": "Entries after “also recorded” stand apart in the source; their conditions may differ. Read-outs that look alike come from different tables or passages of the source.", "data": [{"molecule": "C[C@H]1O[C@H](O[C@H]2[C@H](O)[C@@H](O)[C@@H](O[C@H]3[C@H](O)[C@@H](O)C(O)O[C@@H]3CO)O[C@@H]2CO)[C@H](O)[C@@H](O)[C@@H]1N[C@H]1C=C(CO)[C@@H](O)[C@H](O)[C@H]1O", "note": "(stereo partly drawn) [Acarbose, acarbose]", "values": [{"measurement": "SPR interaction", "setting": "[1]", "result": "interact with M.tb PpiB in a dose dependent manner and bind with high affinity"}, {"measurement": "biofilm formation, induced PpiB tet+", "setting": "[2]", "result": "significant decrease in biofilm formation"}, {"measurement": "biofilm formation, acarbose 500 µg/ml and above", "setting": "[2]; 500 µg/ml and above", "result": "inhibited biofilm formation"}, {"measurement": "biofilm formation, uninduced PpiB tet-", "setting": "[2]; Ms_PpiB uninduced by anhydrotetracycline (PpiB tet-)", "result": "did not exhibit any significant change"}, {"measurement": "biofilm formation, Ms_VC cells", "setting": "[2]; Ms_VC, presence or absence of agent", "result": "only basal levels of biofilm formation"}, {"measurement": "biofilm formation, 500 and 1000 µg/ml", "setting": "[2]; acarbose 500 and 1000 µg/ml, Ms_PpiB, compared to no acarbose, 7 days", "result": "significant inhibition in the biofilm formation"}, {"measurement": "biofilm formation, lower concentrations", "setting": "[2]; acarbose at lower concentrations, VC tet- and PpiB tet-, \"Hormetic effect\"", "result": "transient increase in biofilm formation"}, {"measurement": "biofilm formation, acarbose upto 100 µg/ml", "setting": "[2]; lower concentration (upto 100 µg/ml)", "result": "increase in biofilm formation"}, {"measurement": "viability, acarbose 10 mg/ml", "setting": "[3]; 10 mg/ml, data not shown", "result": "no significant effect"}, {"measurement": "Threshold concentration at which viability was not significantly affected", "setting": "[3]; M. smegmatis expressing PpiB, alamar blue", "result": 1000, "unit": "µg/mL"}, {"measurement": "viability, acarbose up to 1000 µg/ml", "setting": "[3]; up to 1000 µg/ml, Ms_VC or Ms_PpiB", "result": "no effect"}, {"measurement": "bacteriostatic effect at 100 µg/ml", "setting": "[4]", "result": "bacteriostatic effect"}, {"measurement": "Concentration up to which effect is bacteriostatic", "setting": "[4]", "result": "≤ 1000", "unit": "µg/mL"}, {"measurement": "bacteriostatic or bactericidal effect", "setting": "[4]", "result": "bacteriostatic effect; also recorded: bacteriostatic activity"}, {"measurement": "reduction in dosage of anti-TB drugs", "setting": "[5]; co-treatment, isoniazid/ethambutol", "result": "at least two-fold"}, {"measurement": "efficacy in decreasing the dosage of ethambutol", "setting": "[6]; acarbose, data not shown", "result": "insignificant"}, {"measurement": "maltose importer block and growth of E. coli", "setting": "[7]", "result": "block maltose importer and consequently suppress growth of E. coli"}]}, {"molecule": "Cc1ccc(-c2cc(C(F)(F)F)nn2-c2ccc(S(N)(=O)=O)cc2)cc1", "note": "[Celebrex]", "values": [{"measurement": "repurposing outcome in patients", "setting": "[8]", "result": "decreasing polyp formation in colon cancer patients"}]}, {"molecule": "CC[C@@H](CO)NCCN[C@@H](CC)CO", "note": "[Ethambutol, ethambutol]", "values": [{"measurement": "dosage of ethambutol with cyclosporine-A", "setting": "[6]", "result": 4, "unit": "µg/mL"}, {"measurement": "dosage of ethambutol, control without GaNP", "setting": "[6]; Fig. 4e, control", "result": 16, "unit": "µg/mL"}, {"measurement": "dosage of ethambutol, absence of cyclosporine-A", "setting": "[6]; Fig. 4d, PpiB tet+, 68 h", "result": 16, "unit": "µg/mL"}, {"measurement": "dosage of ethambutol with GaNP", "setting": "[6]; GaNP 50 µg/ml, Fig. 4e", "result": 1, "unit": "µg/mL"}, {"measurement": "dosage of ethambutol, normally effective", "setting": "[9]", "result": 1, "unit": "µg/mL"}]}, {"molecule": "NNC(=O)c1ccncc1", "note": "[Isoniazid, isoniazid]", "values": [{"measurement": "dosage of isoniazid with cyclosporine-A", "setting": "[5]", "result": 32, "unit": "µg/mL"}, {"measurement": "fold decrease in dosage of isoniazid", "setting": "[5]", "result": "2–4 fold"}, {"measurement": "dosage of isoniazid, absence of cyclosporine-A", "setting": "[5]; Fig. 4a, PpiB tet+ biofilm, 7 days then 68 h isoniazid", "result": 64, "unit": "µg/mL"}, {"measurement": "dosage of isoniazid, absence of acarbose", "setting": "[5]; Fig. 4b, PpiB (tet+), 68 h", "result": 64, "unit": "µg/mL"}, {"measurement": "dosage of isoniazid with GaNP", "setting": "[5]; GaNP 50 µg/ml, Fig. 4c, 68 h", "result": 16, "unit": "µg/mL"}, {"measurement": "dosage of isoniazid with acarbose", "setting": "[5]; acarbose 500 µg/ml, Fig. 4b, PpiB (tet+), 68 h", "result": 32, "unit": "µg/mL"}, {"measurement": "dosage of isoniazid, normally effective", "setting": "[10]", "result": 16, "unit": "µg/mL"}]}, {"molecule": "CCN(CC)CCCC(C)Nc1ccnc2cc(Cl)ccc12", "note": "(stereo not drawn) [chloroquine]", "values": [{"measurement": "repurposing outcome in patients", "setting": "[8]", "result": "improving outcome of cancer drug Erlotinib"}]}, {"molecule": "CN(C)C(=N)N=C(N)N", "note": "[metformin]", "values": [{"measurement": "repurposing outcome in patients", "setting": "[8]", "result": "lowering morbidity of TB patients"}]}, {"molecule": "O=C(Nc1ccc([N+](=O)[O-])cc1Cl)c1cc(Cl)ccc1O", "note": "[niclosamide]", "values": [{"measurement": "effect against P.aeruginosa biofilm", "setting": "[11]", "result": "inhibitory effects against biofilms formed by P.aeruginosa"}]}, {"molecule": "cyclosporine-A", "values": [{"measurement": "SPR interaction", "setting": "[1]", "result": "interact with M.tb PpiB in a dose dependent manner and bind with high affinity"}, {"measurement": "biofilm formation, 100 µg/ml", "setting": "[2]", "result": "significant decrease (p < 0.05) in biofilm formation"}, {"measurement": "biofilm formation, 1000 µg/ml", "setting": "[2]", "result": "complete inhibition of biofilm formation (p < 0.005)"}, {"measurement": "biofilm formation, Ms_VC cells", "setting": "[2]", "result": "only basal levels of biofilm formation"}, {"measurement": "biofilm formation, induced PpiB tet+", "setting": "[2]", "result": "significant decrease in biofilm formation"}, {"measurement": "biofilm formation, uninduced PpiB tet-", "setting": "[2]", "result": "did not exhibit any significant change"}, {"measurement": "Threshold concentration at which viability was not significantly affected", "setting": "[3]", "result": 100, "unit": "µg/mL"}, {"measurement": "viability, cyclosporine-A below 250 µg/ml", "setting": "[3]", "result": "insignificant effect"}, {"measurement": "bacteriostatic effect at 100 µg/ml", "setting": "[4]", "result": "bacteriostatic effect"}, {"measurement": "Concentration up to which effect is bacteriostatic", "setting": "[4]", "result": "≤ 500", "unit": "µg/mL"}, {"measurement": "bacteriostatic or bactericidal effect", "setting": "[4]; listed as cyclosporine A", "result": "bacteriostatic activity"}, {"measurement": "bacteriostatic or bactericidal effect", "setting": "[4]; listed as cyclosporine-A", "result": "bacteriostatic effect"}, {"measurement": "reduction in dosage of anti-TB drugs", "setting": "[5]", "result": "at least two-fold"}, {"measurement": "decrease in ethambutol dosage with cyclosporine-A", "setting": "[6]", "result": "decreased four-fold"}, {"measurement": "biofilm formation in H37Rv, cyclosporine-A", "setting": "[12]", "result": "significant reduction (Fig. 5a) in biofilm formation"}, {"measurement": "effect on H37Rv biofilm formation", "setting": "[12]", "result": "disrupted M.tb H37Rv biofilm formation; also recorded: Suppressive effect"}, {"measurement": "combination with fluconazole against C.albicans biofilms", "setting": "[13]", "result": "effective against biofilms formed by C.albicans"}, {"measurement": "sensitisation of C. albicans biofilm to antifungal drugs", "setting": "[13]", "result": "sensitises drug-tolerant biofilm of Candida albicans to various antifungal drugs"}, {"measurement": "sensitivity of C.albicans to fluconazole", "setting": "[13]", "result": "imparts sensitivity to C.albicans towards fluconazole"}, {"measurement": "synergy with antifungals against C.parapsilosis", "setting": "[14]", "result": "acts synergistically to improve the efficacy of antifungals against C.parapsilosis"}, {"measurement": "affinity for prokaryotic cyclophilins", "setting": "[15]", "result": "weak affinity"}]}]}
